From patent US9765018B2, “IDO inhibitors” (BRISTOL-MYERS SQUIBB COMPANY, priority 2013, dated 2017)

Tests used:
Human IDO1 = Human IDO1 (Homo sapiens (Human), UniProt P14902); test: IDO Kynurenine Assay with Human IDO1/HEK293 Cells; assay type: cell-based; conditions: HEK293 cells with human IDO1; read-out: HEK human IDO-1 (IC50)
How it was run: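 HEK293 cells expressing human IDO1 (10,000/well, phenol-red-free RPMI, 10% FBS) exposed to compound for 20 h at 37 °C. Reaction stopped with 0.2% TCA and heated 30 min at 50 °C; kynurenine in supernatant detected with Ehrlich reagent by absorbance at 490 nm.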

IDO [1] = biological target: T1, IDO (Homo sapiens (Human), UniProt P14902); test: Kynurenine assay in IFN-γ-stimulated Hela cells; assay type: cell-based; conditions: 20 h, read-out: Hela Kyurenine (IC50)
T1 sequence (P14902 whole entry): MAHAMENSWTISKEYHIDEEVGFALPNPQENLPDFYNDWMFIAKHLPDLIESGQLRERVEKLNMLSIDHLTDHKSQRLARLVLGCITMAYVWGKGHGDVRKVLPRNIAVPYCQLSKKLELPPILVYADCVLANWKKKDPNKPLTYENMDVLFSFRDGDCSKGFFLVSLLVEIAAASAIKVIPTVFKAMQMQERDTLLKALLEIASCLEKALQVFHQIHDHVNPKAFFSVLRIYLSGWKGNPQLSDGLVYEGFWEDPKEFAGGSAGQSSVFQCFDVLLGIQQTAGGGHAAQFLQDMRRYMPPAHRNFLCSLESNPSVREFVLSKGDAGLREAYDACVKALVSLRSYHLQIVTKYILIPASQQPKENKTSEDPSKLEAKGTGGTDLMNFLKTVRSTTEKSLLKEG
How it was run: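 Kynurenine in supernatant is read at 490 nm after Ehrlich reagent (10 min RT), following TCA stop and 30 min at 50° C hydrolysis. Before that, Hela cells in phenol red-free RPMI/10% FBS were co-treated 20 h at 37° C with 100 ng/mL IFN-γ and compound (30 μM top, 3-fold series to 1.5 nM).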

IDO [2] = biological target: T1, IDO; test: LLE_IDO_ABS_DR (IDO assay, method not described)

Chain of Human IDO1 (P14902 whole entry): as above

Row | IC50 (Human IDO1) | IC50 (IDO [1]) | IC50 (IDO [2]) | SMILES
1 | 6.58 µM | 0.25 µM | 2.25 µM | Cc1ccc(NC(=O)Nc2cc(-c3cccc(C(=O)O)c3)ccc2Oc2cccc(Cl)c2)cc1 [Example 245, 4′-(3-chlorophenoxy)-3′-(3-p-tolylureido) biphenyl-3-carboxylic acid]
2 | 1.6 µM | 0.39 µM | 1.61 µM | COc1ccc(-c2ccc(Oc3ccccc3C(C)C)c(NC(=O)Nc3ccc(C)cc3)c2)cc1C(=O)O [Example 63, 4′-(2-isopropylphenoxy)-4-methoxy-3′-(3-p-tolylureido)biphenyl-3-carboxylic acid]
3 | 0.53 µM | 0.05 µM | 0.2 µM | COc1ccc(-c2ccc(Oc3cccc4c3CCC4)c(NC(=O)Nc3ccccc3C)c2)cc1C(=O)O [Example 143, 4′-(2,3-dihydro-1H-inden-4-yloxy)-4-methoxy-3′-(3-o-tolylureido)biphenyl-3-carboxylic acid]
4 | 1.83 µM | 0.12 µM | 1.01 µM | CCOc1ccc(-c2ccc(Oc3ccccc3C(C)(C)C)c(NC(=O)Nc3ccc(C)cc3)c2)cc1C(=O)O [Example 5, 4′-(2-tert-Butylphenoxy)-4-ethoxy-3′-(3-p-tolylureido)biphenyl-3-carboxylic acid]
5 | 0.45 µM | 0.05 µM | 0.29 µM | COc1ccc(-c2ccc(Oc3cccc4c3CCCC4)c(NC(=O)Nc3ccccc3F)c2)cc1C(=O)O [Example 152, 3′-(3-(2-fluorophenyl)ureido)-4-methoxy-4′-(5,6,7,8-tetrahydronaphthalen-1-yloxy)biphenyl-3-carboxylic acid]
6 | 0.68 µM | 0.16 µM | 0.73 µM | COc1ccc(-c2ccc(Oc3cccc(C)c3C)c(NC(=O)Nc3ccc(C)cc3)c2)cc1C(=O)O [Example 123, 4′-(2,3-dimethylphenoxy)-4-methoxy-3′-(3-p-tolylureido)biphenyl-3-carboxylic acid]
7 | 0.62 µM | 0.09 µM | 0.34 µM | COc1ccc(-c2ccc(Oc3ccccc3C(C)(C)C)c(NC(=O)Nc3ccccc3Cl)c2)cc1C(=O)O [Example 42, 4′-(2-tert-butylphenoxy)-3′-(3-(2-chlorophenyl)ureido)-4-methoxybiphenyl-3-carboxylic acid]
